From paper PMC5018819 (Scientific Reports, 2016)
Where two headings read alike, the source gives them in different places.

Experiments:
PfCK [1] = molecular target: T1, PfCK (Plasmodium falciparum, UniProt Q8IM71); test: IC50 determination, spectrophotometric CK/EK enzyme assay; assay type: biochemical; conditions: for IC50: 0.5 mM each substrate
T1 construct: made in house
T1 sequence (Q8IM71 1-440): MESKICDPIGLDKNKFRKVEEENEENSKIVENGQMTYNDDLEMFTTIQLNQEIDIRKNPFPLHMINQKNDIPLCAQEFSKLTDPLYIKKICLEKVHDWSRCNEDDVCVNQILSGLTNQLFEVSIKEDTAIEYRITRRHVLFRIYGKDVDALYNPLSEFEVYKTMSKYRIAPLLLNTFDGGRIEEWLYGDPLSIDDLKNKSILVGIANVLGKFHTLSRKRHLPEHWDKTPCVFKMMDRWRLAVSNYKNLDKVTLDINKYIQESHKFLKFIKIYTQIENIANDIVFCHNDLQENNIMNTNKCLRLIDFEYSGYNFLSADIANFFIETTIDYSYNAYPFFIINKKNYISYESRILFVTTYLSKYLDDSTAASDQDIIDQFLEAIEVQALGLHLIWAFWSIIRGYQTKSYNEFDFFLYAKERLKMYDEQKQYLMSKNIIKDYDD
Description: A continuous spectrophotometric 96-well plate assay was established for CK and EK activity based on an assay described. […] The reaction was initiated by addition of enzyme or substrate, as appropriate, and the rate of reaction was monitored by following the decrease in absorbance at 341 nm for 10 min at room temperature using a Thermo Multiska spectrophotometer. Experiments were carried out to ensure that coupling enzymes were not rate-limiting under any of the conditions used and control experiments lacking substrates and/or enzyme were carried out to correct for any background rate.
The enzyme was pre-incubated for 5 min with varying concentrations of inhibitor prior to reaction being started by addition of 0.5 mM each substrate. The IC50 values were estimated using Grafit 5 (Erithacus Software Ltd).

PfCK [2] = molecular target: T1, PfCK; test: Kd by tryptophan fluorescence quenching; assay type: binding; conditions: for Kd: tryptophan fluorescence quenching, 25 °C, enzyme 1 μM
Description: (§1) Compounds BR23 and BR25 were prepared in 100% DMSO. The Kds for compounds BR23 and BR25 against HsCKα1 and PfCK were measured by monitoring the quenching of tryptophan fluorescence. All experiments were carried out in a Cary Eclipse spectrofluorometer at 25 °C with the enzymes at 1 μM, and concentrations of compounds varying from 0.05 to 8 μM for HsCKα1, and from 0.05 to 16 μM for PfCK in 25 mM Tris, 150 mM NaCl, pH 7.5. Fluorescence emission spectra were recorded in the 300–400 nm range with an excitation wavelength of 280 nm, with slit width of 5 nm. Controls were determined by incubating the enzymes with equivalent amounts of DMSO. As indicated previously, data analysis was performed in Prism (GraphPad software) considering a model with a single binding site (Eq. 1), where F0 is the intrinsic fluorescence of the enzyme in the absence of quencher (Q), F1 is the observed fluorescence at a given quencher concentration, fa is the fractional degree of fluorescence, and Kd is the dissociation constant.

HsCKα1 = molecular target: T2, HsCKα1 (Homo sapiens, UniProt P35790); test: Kd by tryptophan fluorescence quenching; assay type: binding; conditions: 25 °C, enzyme 1 μM
T2 construct: made in house
T2 sequence (P35790 whole entry): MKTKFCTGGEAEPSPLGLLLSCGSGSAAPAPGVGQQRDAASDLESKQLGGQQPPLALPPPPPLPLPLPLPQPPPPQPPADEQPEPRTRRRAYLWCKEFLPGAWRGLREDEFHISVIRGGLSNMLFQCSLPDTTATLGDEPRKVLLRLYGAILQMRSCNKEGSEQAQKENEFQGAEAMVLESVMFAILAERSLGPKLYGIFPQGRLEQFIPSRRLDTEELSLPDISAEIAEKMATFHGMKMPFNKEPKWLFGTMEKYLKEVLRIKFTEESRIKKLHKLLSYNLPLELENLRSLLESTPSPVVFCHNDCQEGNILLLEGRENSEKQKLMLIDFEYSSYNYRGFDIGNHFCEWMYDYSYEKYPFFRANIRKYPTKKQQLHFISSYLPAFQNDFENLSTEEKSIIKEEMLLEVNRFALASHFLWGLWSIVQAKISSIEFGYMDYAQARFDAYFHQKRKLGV
Description: as §1

[3] = Etn as substrate, read-out: IC50 PfCK, Etn
[4] = read-out: IC50 PfCK, Cho, Cho as substrate

SMILES: CN(C)c1cc[n+](Cc2ccc(-c3ccc(C[n+]4ccc(N5CCCC5)cc4)cc3)cc2)cc1.[Br-].[Br-] [BR23]
- inhibition towards PfCKs choline kinase activity (in words) (PfCK [1]; Cho as substrate): moderate inhibition
- IC50 (PfCK [1]; [3]): 12 µM
- IC50 (PfCK [1]; [4]): 276 µM
- Kd (PfCK [2]): 1.4 µM
- Kd (HsCKα1): 0.521 ± 0.2 µM

SMILES: CN(C)c1cc[n+](Cc2ccc(CCCCc3ccc(C[n+]4ccc(N5CCCC5)cc4)cc3)cc2)cc1.[Br-].[Br-] [BR25]
- inhibition towards PfCKs choline kinase activity (in words) (PfCK [1]; Cho as substrate): moderate inhibition
- IC50 (PfCK [1]; [3]): 6 µM
- IC50 (PfCK [1]; [4]): 103 µM
- affinity for PfCK relative to BR23 (PfCK [2]; ratio of Kds): 3 fold
- Kd (PfCK [2]): 0.415 ± 0.081 µM
- Kd (HsCKα1): 0.352 ± 0.02 µM
